US20230381190A1, “Methods and Treatment for Complex Lymphatic Malformations” (priority 2022, published 2023)
“And” between values parts separate entries of the source, which are not always exact repeats. Identical values can stand only once. Like-named read-outs stand apart in the source and are kept apart here.

What was measured:
[1] = cited from earlier work
[2] = cited from earlier work; remark: listed apart in the source
[3] = Modeling and simulation of human PK for dose selection; settings: total daily dose 1.0 mg, divided every 12 hours, 50th percentile
Source text: The doses proposed for this study were selected after modeling and simulation of the human PK of CERC-006 using data reported by Mateo et al (Mateo J, Olmos D, Dumez H, et al. A first in man, dose-finding study of the mTORC1/mTORC2 inhibitor OSI-027 in patients with advanced solid malignancies. Br J Cancer. 2016114(8):889-896) and comparing the PK/PD response for sirolimus in patients with complicated vascular anomalies published by Adams et al (Adams et al, Pediatrics (2016)) and Mizuno et al (Mizuno T, Emoto C, Fukuda T, et al. Model-based precision dosing of sirolimus in pediatric patients with vascular anomalies. Eur J Pharm Sci. 2017; 109S:S124-S131). The goal was to estimate doses that would produce effective trough plasma concentrations of CERC-006 in relation to pharmacological target potency (mTOR complex inhibition) using the PK/PD response achieved by sirolimus in this patient population as a benchmark. […] The additional dose proposed, 2.0 mg/day, is necessary to ensure potential therapeutic benefit while preserving safety and providing a range of plasma concentrations to guide future PK/PD modeling efforts.

[4] = regardless of relationship, 123 subjects
[5] = linear extrapolation from simulated PK profile, listed as CERC-006

COc1cccc2cc(-c3nc([C@H]4CC[C@H](C(=O)O)CC4)n4ncnc(N)c34)[nH]c12 [AVTX-006, trans-4-[4-Amino-5-(7-methoxyl-1H-indol-2-yl)-imidazo[5,1-f][1,2,4]triazine-7-yl]-cyclohexanecarboxylic acid]
Subjects with TEAEs considered drug regimen-related ([1]; 92 of 123 subjects, by the investigator): 74.8%
Drug regimen related TEAE anorexia ([1]; 123 subjects): 21.1%
Drug regimen related TEAE fatigue ([1]; 123 subjects): 44.7%
Drug regimen related TEAE increased blood creatinine ([1]; 123 subjects): 26.0%
Drug regimen related TEAE nausea ([1]; 123 subjects): 40.7%
Drug regimen related TEAE vomiting ([1]; 123 subjects): 18.7%
Subjects with related SAEs ([1]; Fifteen subjects): 12.2%
Subjects with serious adverse events (SAEs) ([1]; Fifty of 123 subjects treated): 40.6%
Maximum tolerated dose (MTD) ([1]; S1: once daily for 3 consecutive days every 7 days): 120 mg
Deaths, subjects ([1]; S1): 48.2%
Maximum tolerated dose (MTD) ([1]; S2: once weekly, escalation stopped at 240 mg every week): not reached
Deaths, subjects ([1]; S2): 25.6%
Maximum tolerated dose (MTD) ([1]; S3: once daily dosing): 30 mg
Dose at which renal toxicity was dose limiting ([1]; S3: once daily): 40 mg
Deaths, subjects ([1]; S3): 14.3%
Deaths considered drug related ([1]; all schedules): None
Observed dose limiting toxicities (DLTs) ([1]; all schedules): fatigue, renal, and cardiac events
Related SAE anorexia ([1]; in vivo): 1 subject
Related SAE blood creatinine increased ([1]; in vivo): 2 subjects
Related SAE bone pain ([1]; in vivo): 1 subject
Related SAE cardiac failure congestive ([1]; in vivo): 1 subject
Related SAE cataract subcapsular ([1]; in vivo): 1 subject
Related SAE diarrhea ([1]; in vivo): 1 subject
Related SAE fatigue ([1]; in vivo): 3 subjects
Related SAE myocardial infarction ([1]; in vivo): 1 subject
Related SAE nausea ([1]; in vivo): 3 subjects
Related SAE pneumonia ([1]; in vivo): 1 subject
Related SAE renal failure ([1]; in vivo): 1 subject
Related SAE stress cardiomyopathy ([1]; in vivo): 1 subject
Related SAE supraventricular tachycardia ([1]; in vivo): 1 subject
Related SAE urticaria ([1]; in vivo): 1 subject
Related SAE vomiting ([1]; in vivo): 2 subjects
TEAE abdominal pain upper, subjects [1, 4]: 10.6%
TEAE abdominal pain, subjects [1, 4]: 17.1%
TEAE anemia, subjects [1, 4]: 13.8%
TEAE anorexia, subjects [1, 4]: 40.7%
TEAE back pain, subjects [1, 4]: 14.6%
TEAE blood creatinine increased, subjects [1, 4]: 28.5%
TEAE constipation, subjects [1, 4]: 25.2%
TEAE cough, subjects [1, 4]: 14.6%
TEAE diarrhea, subjects [1, 4]: 22.8%
TEAE dyspnea, subjects [1, 4]: 17.1%
TEAE fatigue, subjects [1, 4]: 65.0%
TEAE headache, subjects [1, 4]: 14.6%
TEAE hypokalemia, subjects [1, 4]: 12.2%
TEAE nausea, subjects [1, 4]: 60.2%
TEAE vomiting, subjects [1, 4]: 33.3%
TEAE weight decreased, subjects [1, 4]: 13.8%
Estimated terminal half-life (t1/2) ([2]; 240 mg dose in S2 (weekly dose schedule)): approximately 14 hours
Dose proportionality of area under the curve (AUC) ([2]; S1 and S2, slope close to 1): dose proportional
Dose proportionality of increases in Cmax ([2]; S1 and S3): apparently proportional to dose
Free trough concentration above the in vitro IC50 for mTOR complex inhibition [3]: approximately 2 fold
Free trough plasma concentration [3, 5]: ~4 ng/mL and ~10 nM
Total trough plasma concentration [3, 5]: approximately 27 ng/mL and ~66 nM
